Data taken from EP0188781A1, “1-Oxa-1-dethia-cephalosporin compounds and antibacterial agent comprising the same” (Merck & Co., Inc., priority 1984, dated 1986).

Key:
Proteus vulgaris GN76 = assay: Minimum inhibitory concentration (MIC) in vitro, antibacterial spectrum; type: cell-based
[1] = Concentration in serum after subcutaneous administration to mice, bioassay with Escherichia coli; type: in vivo; details: mouse, sc, 25 mg/kg subcutaneously
From the text: For the serum which was separated from the blood samples, the concentration in the serum of the compound administered was bioassayed using Escherichia coli as assay microorganism.

[2] = tested on: Pseudomonas aeruginosa MB3829; assay: Minimum inhibitory concentration (MIC) in vitro, antibacterial spectrum; type: cell-based
[3] = tested on: Staphylococcus aureus 209 P JC-1; assay: as above; type: cell-based
Proteus rettgeri GN624 = assay: as above; type: cell-based
[4] = tested on: Staphylococcus aureus Smith; assay: as above; type: cell-based
[5] = tested on: Pseudomonas aeruginosa MB3833; assay: as above; type: cell-based
Escherichia coli GN206 = assay: as above; type: cell-based
[6] = tested on: Pseudomonas aeruginosa E-2; assay: as above; type: cell-based
[7] = tested on: Streptococcus faecalis W-74; assay: as above; type: cell-based
Streptococcus faecalis = assay: Antibacterial activity in vitro, summary in words; type: cell-based; details: statement in words on Table 1
[8] = tested on: Streptococcus faecalis ATCC8043; assay: Minimum inhibitory concentration (MIC) in vitro, antibacterial spectrum; type: cell-based
Pseudomonas aeruginosa = assay: Antibacterial activity in vitro, summary in words; type: cell-based; details: statement in words on Table 1
From the text: Besides, the compounds of Examples 1, 2, 4, 5 and 7 advantageously are also effective against Pseudomonas aeruginosa.

[9] = tested on: Streptococcus faecalis W-73; assay: Minimum inhibitory concentration (MIC) in vitro, antibacterial spectrum; type: cell-based
[10] = tested on: Streptococcus faecalis W-75; assay: as above; type: cell-based
Proteus mirabilis GN79 = assay: as above; type: cell-based
[11] = tested on: Salmonella typhimurium LT-2; assay: as above; type: cell-based
[12] = tested on: Serratia marcescens No. 2; assay: as above; type: cell-based
[13] = tested on: Escherichia coli NIHJ JC-2; assay: as above; type: cell-based

Q: For `CO/N=C(\C(=O)N[C@@H]1C(=O)N2C(C(=O)O)=C(CSc3nc(=O)c(O)nn3C)[C@H](C)O[C@H]12)c1csc(N)n1` [Compound No. 1, (6R,7R)-7[(Z)-2-(2-aminothiazol-4-yl)-2-(methoxyimino)acetamido]-(2S)-2-methyl-3-(2,5-dihydro-6-hydroxy-2-methyl-5-oxo-1,2,4-triazin-3-yl)thiomethyl-l-oxa-l-dethia-ceph-3-em-4-carboxylic acid], which “Minimum inhibitory concentration (MIC)” value (Proteus vulgaris GN76) is on record?
A: The value was 0.10.

Q: And the concentration at 0.5 h ([1]; 1/2 hour)?
A: Its concentration at 0.5 h is 41000 ng/mL.

Q: What about the concentration at 0.25 h ([1]; 1/4 hour) of the same compound?
A: Its concentration at 0.25 h is 47700 ng/mL.

Q: What about the concentration at 5 min ([1]; 1/12 hour) of the same compound?
A: Its concentration at 5 min is 27000 ng/mL.

Q: What about the concentration at 1 h ([1]; 1 hour) of the same compound?
A: Its concentration at 1 h is 24800 ng/mL.

Q: What about the “Minimum inhibitory concentration (MIC)” value [2] of the same compound?
A: The value was 6.25.

Q: What about the “Minimum inhibitory concentration (MIC)” value [3] of the same compound?
A: The value was 0.78.

Q: What about the “Minimum inhibitory concentration (MIC)” value (Proteus rettgeri GN624) of the same compound?
A: The value was 0.78.

Q: What about the “Minimum inhibitory concentration (MIC)” value [4] of the same compound?
A: The value was 1.56.

Q: What about the “Minimum inhibitory concentration (MIC)” value [5] of the same compound?
A: The value was 6.25.

Q: What about the “Minimum inhibitory concentration (MIC)” value (Escherichia coli GN206) of the same compound?
A: Its value is 0.78.

Q: And the “Minimum inhibitory concentration (MIC)” value [6]?
A: The value was 12.5.

Q: And the “Minimum inhibitory concentration (MIC)” value [7]?
A: The value was 6.25.

Q: What about the “effective against Streptococcus faecalis” value (Streptococcus faecalis) of the same compound?
A: The value was “effective”.

Q: What about the “Minimum inhibitory concentration (MIC)” value [8] of the same compound?
A: Its value is 6.25.

Q: What about the “effective against Pseudomonas aeruginosa” value (Pseudomonas aeruginosa) of the same compound?
A: Its value is “effective”.

Q: What about the “Minimum inhibitory concentration (MIC)” value [9] of the same compound?
A: The value was 50.

Q: What about the “Minimum inhibitory concentration (MIC)” value [10] of the same compound?
A: The value was 0.20.

Q: And the “Minimum inhibitory concentration (MIC)” value (Proteus mirabilis GN79)?
A: Its value is 0.025.

Q: And the “Minimum inhibitory concentration (MIC)” value [11]?
A: Its value is 0.05.

Q: What about the “Minimum inhibitory concentration (MIC)” value [12] of the same compound?
A: Its value is 0.39.

Q: What about the “Minimum inhibitory concentration (MIC)” value [13] of the same compound?
A: Its value is 0.10.
